Experimental data as given in US9040545B2, “Heterocyclyl pyrazolopyrimidine analogues as selective JAK inhibitors” (Cellzome Limited, priority 2010, dated 2015).

Assays:
JAK2 = target: T1, JAK2 (Homo sapiens, UniProt O60674); assay: Kinobeads assay, JAK2; assay type: binding; conditions: mixed Molt4/Ramos lysate, read-out: Inhibition values (IC50) JAK2
T1 construct: endogenous in cells; host or cells: mixed Molt4/Ramos lysate (1:2)
Procedure, shortened: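 Competition binding in mixed Molt4/Ramos cell lysate (1:2, 10 mg/mL protein) with Kinobeads carrying immobilized aminopyrido-pyrimidine ligand, 3 h in cold room; 9-step 1:3 compound dilution series from 5 mM DMSO stock. Bead-bound JAK2/JAK3 eluted and quantified by antibody dot blot with infrared detection; IC50 from dose-response curves.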

Aurora A = target: T2, Aurora A (Homo sapiens, UniProt O14965); assay: Kinobeads assay, Aurora A; assay type: binding; conditions: for IC50: lysate of pervanadate-treated Jurkat cells, read-out: Inhibition values (IC50) Aur A
T2 construct: cell lysates from Jurkat cells (ATCC TIB-152) used; endogenous in cells; host or cells: Jurkat cells (ATCC TIB-152), treated with pervanadate
T2 sequence (O14965 1-403): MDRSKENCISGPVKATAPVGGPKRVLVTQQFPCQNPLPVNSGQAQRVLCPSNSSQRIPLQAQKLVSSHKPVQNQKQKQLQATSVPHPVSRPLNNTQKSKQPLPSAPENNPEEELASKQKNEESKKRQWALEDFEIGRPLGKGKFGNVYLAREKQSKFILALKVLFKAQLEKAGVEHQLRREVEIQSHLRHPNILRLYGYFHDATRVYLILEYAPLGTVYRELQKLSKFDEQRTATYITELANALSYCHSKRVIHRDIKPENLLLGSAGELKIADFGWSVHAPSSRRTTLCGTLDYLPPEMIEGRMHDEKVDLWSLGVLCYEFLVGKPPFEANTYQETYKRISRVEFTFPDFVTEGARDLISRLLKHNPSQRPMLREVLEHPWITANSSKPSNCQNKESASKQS

T1 sequence (O60674 whole entry): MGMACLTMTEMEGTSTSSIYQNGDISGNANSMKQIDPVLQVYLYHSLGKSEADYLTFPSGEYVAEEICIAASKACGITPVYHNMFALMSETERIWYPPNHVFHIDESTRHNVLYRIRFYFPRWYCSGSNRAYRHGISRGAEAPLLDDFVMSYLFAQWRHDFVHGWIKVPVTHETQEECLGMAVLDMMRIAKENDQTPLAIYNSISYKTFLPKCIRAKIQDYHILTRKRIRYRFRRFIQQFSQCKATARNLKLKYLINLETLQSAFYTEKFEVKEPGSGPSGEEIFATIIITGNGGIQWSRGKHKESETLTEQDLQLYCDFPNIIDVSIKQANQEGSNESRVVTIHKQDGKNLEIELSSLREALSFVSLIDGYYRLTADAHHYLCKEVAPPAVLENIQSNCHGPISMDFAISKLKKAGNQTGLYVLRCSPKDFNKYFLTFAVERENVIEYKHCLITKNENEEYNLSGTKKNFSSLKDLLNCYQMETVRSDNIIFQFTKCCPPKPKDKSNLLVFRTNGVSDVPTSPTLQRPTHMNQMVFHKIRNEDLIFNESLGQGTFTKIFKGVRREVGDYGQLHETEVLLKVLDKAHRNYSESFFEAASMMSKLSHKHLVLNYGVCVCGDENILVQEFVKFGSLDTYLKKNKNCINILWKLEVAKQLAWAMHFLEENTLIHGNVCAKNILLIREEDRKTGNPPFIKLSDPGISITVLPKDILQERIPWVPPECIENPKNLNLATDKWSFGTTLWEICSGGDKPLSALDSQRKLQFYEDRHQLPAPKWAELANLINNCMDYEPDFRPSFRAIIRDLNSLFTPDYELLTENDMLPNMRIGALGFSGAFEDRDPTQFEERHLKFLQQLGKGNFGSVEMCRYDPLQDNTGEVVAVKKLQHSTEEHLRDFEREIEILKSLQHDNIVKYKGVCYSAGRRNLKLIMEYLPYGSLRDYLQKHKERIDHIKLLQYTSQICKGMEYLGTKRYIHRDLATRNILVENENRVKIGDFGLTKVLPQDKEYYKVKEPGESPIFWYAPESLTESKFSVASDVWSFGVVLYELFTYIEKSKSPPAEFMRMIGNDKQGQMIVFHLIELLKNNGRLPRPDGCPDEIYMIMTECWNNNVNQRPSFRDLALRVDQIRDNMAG

| IC50 (JAK2) [nM] | JAK3/AurA Fold Selectivity (Aurora A) | IC50 (Aurora A) [nM] | Compound |
| --- | --- | --- | --- |
| 100 to 1000 | 10-50 Fold | < 100 | O=C1COCCN1c1cc(F)cc(Cn2ncc3cnc(Nc4cnn(C5CCNCC5)c4)nc32)c1 [Example 102, 4-(3-fluoro-5-((6-((1-(piperidin-4-yl)-1H-pyrazol-4-yl)amino)-1H-pyrazolo[3,4-d]pyrimidin-1-yl)methyl)phenyl)morpholin-3-one] |
| 1000 to 10000 | 10-50 Fold | 100 to 1000 | O=C1COCCN1c1cc(F)cc(Cn2ncc3cnc(Nc4cnn(CCS(=O)(=O)NC5CC5)c4)nc32)c1 [Example 106, N-cyclopropyl-2-(4-((1-(3-fluoro-5-(3-oxomorpholino)benzyl)-1H-pyrazolo[3,4-d]pyrimidin-6-yl)amino)-1H-pyrazol-1-yl)ethanesulfonamide] |
| 1000 to 10000 | 10-50 Fold | 100 to 1000 | Cn1cc(Nc2ncc3cnn(Cc4cc(F)cc(N5CCNCC5)c4)c3n2)cn1 [Example 92, 1-(3-fluoro-5-(piperazin-1-yl)benzyl)-N-(1-methyl-1H-pyrazol-4-yl)-1H-pyrazolo[3,4-d]pyrimidin-6-amine] |
| ≥ 10000 | 10-50 Fold | 100 to 1000 | OCCn1cc(Nc2ncc3cnn(Cc4cccc(N5CCOCC5)c4)c3n2)cn1 [Example 5, 2-(4-((1-(3-Morpholinobenzyl)-1H-pyrazolo[3,4-d]pyrimidin-6-yl)amino)-1H-pyrazol-1-yl)ethanol] |
| ≥ 10000 | 10-50 Fold | 100 to 1000 | Cn1cc(Nc2ncc3cnn(Cc4c(F)ccc(N5CCOCC5)c4F)c3n2)cn1 [Example 38, 1-(2,6-Difluoro-3-morpholinobenzyl)-N-(1-methyl-1H-pyrazol-4-yl)-1H-pyrazolo[3,4-d]pyrimidin-6-amine] |
| 1000 to 10000 | 10-50 Fold | 100 to 1000 | CN(C)C(=O)CCn1cc(Nc2ncc3cnn(Cc4cccc(N5CCOCC5)c4)c3n2)cn1 [Example 16, N,N-Dimethyl-3-(4-((1-(3-morpholinobenzyl)-1H-pyrazolo[3,4-d]pyrimidin-6-yl)amino)-1H-pyrazol-1-yl)propanamide] |
| 1000 to 10000 | 10-50 Fold | 100 to 1000 | Cn1cc(-c2cccc(Cn3ncc4cnc(Nc5cnn(CCO)c5)nc43)c2)cn1 [Example 122, 2-(4-((1-(3-(1-methyl-1H-pyrazol-4-yl)benzyl)-1H-pyrazolo[3,4-d]pyrimidin-6-yl)amino)-1H-pyrazol-1-yl)ethanol] |
| 1000 to 10000 | >50 Fold | 1000 to 10000 | Cn1cc(Nc2ncc3cnn(Cc4c(F)c(F)cc(N5CCOCC5)c4F)c3n2)cn1 [Example 17, N-(1-Methyl-1H-pyrazol-4-yl)-1-(2,3,6-trifluoro-5-morpholinobenzyl)-1H-pyrazolo[3,4-d]pyrimidin-6-amine] |
| ≥ 10000 | 3-10 Fold | 100 to 1000 | CC(C)n1cc(-c2cccc(Cn3ncc4cnc(Nc5cnn(C)c5)nc43)c2)cn1 [Example 117, 1-(3-(1-isopropyl-1H-pyrazol-4-yl)benzyl)-N-(1-methyl-1H-pyrazol-4-yl)-1H-pyrazolo[3,4-d]pyrimidin-6-amine] |
| 100 to 1000 | >50 Fold | ≥ 10000 | OCCn1cc(Nc2ncc3cnn(Cc4cc(F)cc(N5CCNCC5)c4F)c3n2)cn1 [Example 96, 2-(4-((1-(2,5-difluoro-3-(piperazin-1-yl)benzyl)-1H-pyrazolo[3,4-d]pyrimidin-6-yl)amino)-1H-pyrazol-1-yl)ethanol] |
